The subject of one assay is Neutrophil. Description: Inhibition of TNF-alpha induced necroptosis in human neutrophil cells assessed as increase in cell viability incubated for 18 hrs in presence of zVAD and SMAC007 by Cell Titer-Glo luminescent cell viability assay. It is filed as functional, cell-based. (In general: ATP-based viability assays read luminescence as a measure of living cells.)
Assay [1] addresses T1, Dual specificity tyrosine-phosphorylation-regulated kinase 3 (Homo sapiens) (UniProt O43781).
T1 sequence (whole entry): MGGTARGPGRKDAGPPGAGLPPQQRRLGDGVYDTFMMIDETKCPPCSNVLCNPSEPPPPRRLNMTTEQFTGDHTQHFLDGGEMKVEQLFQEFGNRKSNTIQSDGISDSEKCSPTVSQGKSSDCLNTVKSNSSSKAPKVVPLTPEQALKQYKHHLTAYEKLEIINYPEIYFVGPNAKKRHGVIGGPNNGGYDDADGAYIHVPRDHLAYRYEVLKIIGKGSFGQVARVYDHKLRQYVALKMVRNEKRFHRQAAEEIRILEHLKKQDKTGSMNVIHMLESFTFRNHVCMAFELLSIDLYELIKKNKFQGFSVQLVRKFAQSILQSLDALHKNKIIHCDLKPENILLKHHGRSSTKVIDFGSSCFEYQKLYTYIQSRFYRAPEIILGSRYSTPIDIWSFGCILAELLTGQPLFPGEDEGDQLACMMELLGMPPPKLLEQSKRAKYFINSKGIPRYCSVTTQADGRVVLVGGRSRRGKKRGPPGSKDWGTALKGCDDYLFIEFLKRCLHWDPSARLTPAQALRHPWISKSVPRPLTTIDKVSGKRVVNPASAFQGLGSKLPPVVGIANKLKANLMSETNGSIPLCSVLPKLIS
Description: Residual activity of human DYRK3 using RRRFRPASPLRGPPK as substrate at 1 uM in presence of 32P-ATP by Hotspot assay relative to control.

The target of assay [2] is Receptor-type tyrosine-protein kinase FLT3 (Homo sapiens) (UniProt P36888). Description: Inhibition of human FLT3 using EAIYAAPFAKKK as substrate at 1 uM in presence of 32P-ATP by Hotspot assay relative to control; values are per cent of control.
Assay [3] has as its target T2, cGMP-dependent protein kinase 2 (Homo sapiens) (UniProt Q13237).
T2 sequence (whole entry): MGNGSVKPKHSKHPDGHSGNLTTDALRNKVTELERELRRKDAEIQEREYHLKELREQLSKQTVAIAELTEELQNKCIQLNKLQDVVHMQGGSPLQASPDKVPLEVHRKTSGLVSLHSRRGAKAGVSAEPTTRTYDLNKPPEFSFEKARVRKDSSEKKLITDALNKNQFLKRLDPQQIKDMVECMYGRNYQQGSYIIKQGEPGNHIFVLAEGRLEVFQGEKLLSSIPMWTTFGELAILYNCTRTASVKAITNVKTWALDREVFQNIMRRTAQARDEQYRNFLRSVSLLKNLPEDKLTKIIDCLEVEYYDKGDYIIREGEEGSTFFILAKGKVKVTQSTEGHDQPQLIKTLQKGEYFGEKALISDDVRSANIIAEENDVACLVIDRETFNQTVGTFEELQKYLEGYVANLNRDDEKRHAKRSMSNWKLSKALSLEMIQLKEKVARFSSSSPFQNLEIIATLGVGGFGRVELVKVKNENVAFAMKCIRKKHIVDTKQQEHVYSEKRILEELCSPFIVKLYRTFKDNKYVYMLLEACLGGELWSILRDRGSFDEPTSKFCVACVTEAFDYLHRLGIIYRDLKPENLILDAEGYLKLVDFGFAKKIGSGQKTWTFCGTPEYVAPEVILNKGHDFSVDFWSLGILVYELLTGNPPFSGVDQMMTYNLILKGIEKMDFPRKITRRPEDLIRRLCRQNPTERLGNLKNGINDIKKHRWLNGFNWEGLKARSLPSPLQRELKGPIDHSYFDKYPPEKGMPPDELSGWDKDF
Description: Inhibition of human PKG2/PRKG2 using LRRASLG as substrate at 1 uM in presence of 32P-ATP by Hotspot assay relative to control; values are per cent of control.

Assay [4] concerns the target Dual specificity tyrosine-phosphorylation-regulated kinase 1B (Homo sapiens) (UniProt Q9Y463). Description: Inhibition of human DYRK1B using RRRFRPASPLRGPPK as substrate at 1 uM in presence of 32P-ATP by Hotspot assay relative to control; values are per cent of control.
In assay [5] the target is Casein kinase I isoform gamma-2 (Homo sapiens) (UniProt P78368). Description: Inhibition of human CK1g2 using KRRRAL[pS]VASLPGL as substrate at 1 uM in presence of 32P-ATP by Hotspot assay relative to control; values are per cent of control.
The target in assay [6] is Tyrosine-protein kinase Fyn (Homo sapiens) (UniProt P06241). Description: Inhibition of human FYN using poly[Glu:Tyr] (4:1) as substrate at 1 uM in presence of 32P-ATP by Hotspot assay relative to control; values are per cent of control.
Assay [7] has as its target CDK9/cyclin T1 (Homo sapiens) (UniProt O60563+P50750). Description: Inhibition of human CDK9/cyclin T1 using KTFCGTPEYLAPEVRREPRILSEEEQEMFRDFDYIADWC as substrate at 1 uM in presence of 32P-ATP by Hotspot assay relative to control; values are per cent of control.

The source made the active and inactive calls. The rule behind the calls is not given here.

Dual specificity tyrosine-phosphorylation-regulated kinase 1B (Homo sapiens), sequence (Q9Y463 whole entry, looked up, canonical isoform): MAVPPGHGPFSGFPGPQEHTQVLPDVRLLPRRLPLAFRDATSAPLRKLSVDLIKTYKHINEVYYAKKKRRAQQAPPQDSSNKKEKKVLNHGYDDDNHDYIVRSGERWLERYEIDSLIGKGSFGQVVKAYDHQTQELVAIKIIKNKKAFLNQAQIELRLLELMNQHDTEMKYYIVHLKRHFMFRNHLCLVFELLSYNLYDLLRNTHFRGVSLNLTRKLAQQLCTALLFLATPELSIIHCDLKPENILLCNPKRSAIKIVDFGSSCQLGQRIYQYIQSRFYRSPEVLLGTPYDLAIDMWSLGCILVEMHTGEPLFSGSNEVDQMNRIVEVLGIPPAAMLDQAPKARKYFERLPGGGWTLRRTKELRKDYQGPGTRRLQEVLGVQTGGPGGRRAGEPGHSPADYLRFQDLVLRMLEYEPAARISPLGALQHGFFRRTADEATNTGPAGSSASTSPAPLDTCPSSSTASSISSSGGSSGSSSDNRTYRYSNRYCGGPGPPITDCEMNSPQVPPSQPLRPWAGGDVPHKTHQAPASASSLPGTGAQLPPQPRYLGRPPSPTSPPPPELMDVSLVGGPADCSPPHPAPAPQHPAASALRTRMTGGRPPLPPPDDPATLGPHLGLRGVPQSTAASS
Casein kinase I isoform gamma-2 (Homo sapiens), sequence (P78368 whole entry, looked up, canonical isoform): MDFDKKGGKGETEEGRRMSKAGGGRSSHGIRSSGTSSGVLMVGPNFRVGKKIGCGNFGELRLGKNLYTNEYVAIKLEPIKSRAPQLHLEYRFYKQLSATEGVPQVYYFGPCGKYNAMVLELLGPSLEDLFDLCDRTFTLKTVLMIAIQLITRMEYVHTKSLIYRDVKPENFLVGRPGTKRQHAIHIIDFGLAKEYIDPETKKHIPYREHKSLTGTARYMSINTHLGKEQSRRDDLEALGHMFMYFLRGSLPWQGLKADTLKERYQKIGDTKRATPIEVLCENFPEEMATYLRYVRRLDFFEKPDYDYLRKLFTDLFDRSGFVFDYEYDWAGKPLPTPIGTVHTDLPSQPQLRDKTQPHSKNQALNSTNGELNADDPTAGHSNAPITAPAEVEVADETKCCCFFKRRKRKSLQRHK
Receptor-type tyrosine-protein kinase FLT3 (Homo sapiens), sequence (P36888 whole entry): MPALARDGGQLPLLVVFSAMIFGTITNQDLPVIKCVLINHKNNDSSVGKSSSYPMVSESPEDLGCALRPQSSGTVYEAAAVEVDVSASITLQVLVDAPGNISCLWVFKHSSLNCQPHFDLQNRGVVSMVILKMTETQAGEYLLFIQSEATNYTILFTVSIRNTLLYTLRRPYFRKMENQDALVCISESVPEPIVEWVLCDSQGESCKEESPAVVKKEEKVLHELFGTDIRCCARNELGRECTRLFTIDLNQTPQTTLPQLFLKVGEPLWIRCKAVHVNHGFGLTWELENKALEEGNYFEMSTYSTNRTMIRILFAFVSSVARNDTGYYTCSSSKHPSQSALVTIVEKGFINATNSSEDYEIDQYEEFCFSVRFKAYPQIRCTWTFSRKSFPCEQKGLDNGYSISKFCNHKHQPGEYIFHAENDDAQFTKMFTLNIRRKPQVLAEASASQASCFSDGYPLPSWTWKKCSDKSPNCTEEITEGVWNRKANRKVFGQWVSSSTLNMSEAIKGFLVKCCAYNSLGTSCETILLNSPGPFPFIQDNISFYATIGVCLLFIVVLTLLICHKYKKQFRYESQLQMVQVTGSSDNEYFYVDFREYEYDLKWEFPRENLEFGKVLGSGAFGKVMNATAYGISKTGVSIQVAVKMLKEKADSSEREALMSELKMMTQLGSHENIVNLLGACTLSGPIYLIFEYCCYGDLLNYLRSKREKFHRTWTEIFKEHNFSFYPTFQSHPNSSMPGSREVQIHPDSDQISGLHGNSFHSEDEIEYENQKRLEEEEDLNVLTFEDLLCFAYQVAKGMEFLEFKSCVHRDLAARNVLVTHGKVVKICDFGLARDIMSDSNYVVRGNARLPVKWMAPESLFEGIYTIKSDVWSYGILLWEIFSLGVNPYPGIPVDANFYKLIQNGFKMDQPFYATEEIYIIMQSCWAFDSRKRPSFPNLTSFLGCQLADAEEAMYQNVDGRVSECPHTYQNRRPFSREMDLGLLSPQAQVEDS
Tyrosine-protein kinase Fyn (Homo sapiens), sequence (P06241 2-537 limits assumed): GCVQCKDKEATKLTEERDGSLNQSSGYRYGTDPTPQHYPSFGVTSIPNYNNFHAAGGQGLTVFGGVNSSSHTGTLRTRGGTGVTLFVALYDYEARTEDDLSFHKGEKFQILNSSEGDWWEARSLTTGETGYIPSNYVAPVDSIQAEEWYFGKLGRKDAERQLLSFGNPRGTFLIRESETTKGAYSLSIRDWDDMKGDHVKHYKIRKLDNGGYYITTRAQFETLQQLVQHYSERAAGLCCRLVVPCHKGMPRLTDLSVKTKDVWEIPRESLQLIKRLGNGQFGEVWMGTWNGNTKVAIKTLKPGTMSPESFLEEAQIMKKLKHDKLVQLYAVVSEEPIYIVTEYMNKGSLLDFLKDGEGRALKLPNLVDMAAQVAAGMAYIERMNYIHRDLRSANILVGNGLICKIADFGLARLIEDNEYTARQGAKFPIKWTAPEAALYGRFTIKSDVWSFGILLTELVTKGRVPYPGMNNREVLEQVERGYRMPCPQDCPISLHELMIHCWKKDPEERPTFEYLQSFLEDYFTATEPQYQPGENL

Consider `CNC(=O)c1ccc2c(c1)ncn2-c1ccc(CC(=O)OC(C)(C)C)cc1`, for which the inhibition entry in the assay with Neutrophil was “Active”. For the same molecule, the residual activity (as a rule, the signal under treatment as a percentage of the control signal) in assay [1] is 101%; in assay [2], 16%; in assay [3] it was 96.7%; in assay [4] it was 98.4%; in assay [5] it was 91.8%; in assay [6], 79.4%. Also, in assay [7], the residual activity is 91.3%.
As to `Cc1cc(-c2cnc(N)c3c(-c4ccc5scnc5c4)csc23)n(C)n1`, the inhibition entry with Neutrophil was “Active”. In addition, the residual activity in assay [1] was 92.9%; in assay [2], 48%; in assay [3], 70.1%; in assay [4] it was 99.5%; in assay [5], 79.1%; in assay [6], 5.73%. For the same molecule, the residual activity in assay [7] is 96.2%.
In the case of `CC(C)S(=O)(=O)c1ccc2nccc(Nc3ccc4scnc4c3)c2c1`, in the assay on Neutrophil, the inhibition result was “Active”. Moreover, the residual activity in assay [1] was determined as 106%; in assay [2], 87.9%; in assay [3] it was 94.6%; in assay [4], 100%; in assay [5] it was 100%; in assay [6], 18%. Further, the residual activity in assay [7] was found to be 96.6%.

(Values after ChEMBL document CHEMBL5649166, “RIP3 induces apoptosis independent of pronecrotic kinase activity” (Mol Cell, 2014).)
